PMC4363471, “Crystal Structure of Helicobacter pylori Pseudaminic Acid Biosynthesis N-Acetyltransferase PseH: Implications for Substrate Specificity and Catalysis” (PLoS ONE, 2015)

Molecular target: T1, PseH (Helicobacter pylori, UniProt O25094)
T1 construct: recombinant; 21 kDa; homodimer
Assay: X-ray crystal structure ([…] Å, co-crystallization)
Assay type: binding
Settings: co-crystallized with 5 mM AcCoA; cofactor site between strands β4 and β5

T1 sequence (O25094 whole entry): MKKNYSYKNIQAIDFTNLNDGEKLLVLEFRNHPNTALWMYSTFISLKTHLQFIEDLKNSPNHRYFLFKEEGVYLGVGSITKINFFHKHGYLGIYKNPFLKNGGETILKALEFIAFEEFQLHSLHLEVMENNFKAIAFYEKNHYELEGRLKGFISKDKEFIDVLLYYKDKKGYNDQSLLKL

Structure (SMILES): CC(=O)SCCNC(=O)CCNC(=O)[C@H](O)C(C)(C)COP(=O)(O)OP(=O)(O)OC[C@H]1O[C@@H](n2cnc3c(N)ncnc32)[C@H](O)[C@@H]1OP(=O)(O)O [AcCoA]
- X-ray crystal structure (2.3 Å, co-crystallization): Analysis of the difference Fourier map revealed an AcCoA binding site between the splayed strands
